From patent publication US20090048112A1, “Novel Herbicides” (SYNGENTA LIMITED, priority 2005, published 2009)

Test system: Monocotyledonous and dicotyledonous test plants
Assay: Example B3: herbicidal action prior to emergence (pre-emergence), 96-cell seed trays, 1000 g/ha
Assay type: in vivo
Design: key: 0 is no damage to plant; 5 is total damage to plant
Conditions: 9 days after application; for AGSTE herbicidal effect (visual assessment, scale 0-5): Agrostis tenius (Colonial bentgrass); for AMARE herbicidal effect (visual assessment, scale 0-5): Amaranthus retroflexus (redroot pigweed); for DIGSA herbicidal effect (visual assessment, scale 0-5): Digitaria sanguinalis (hairy finger-grass); for POATR herbicidal effect (visual assessment, scale 0-5): Poa trivialis (rough blue grass); for SETIT herbicidal effect (visual assessment, scale 0-5): Setaria italica (foxtail millet)
Description: Monocotyledonous and dicotyledonous test plants were sown in sterilised standard soil in seed trays each with 96 cells. The seed trays were stored under controlled conditions in a climatic chamber for one day (cultivation at 23° C. during the day and 17° C. at night; 13 hours of light; 50-60% humidity). The chemicals were applied to the soil surface. The application was carried out with an aqueous suspension of the test substances, prepared as a formulation in water with 10% dimethyl sulfoxide (CAS RN 67-68-5), to achieve a field equivalent of 1000 l/ha. The application rate of the test substances was 1000 g/ha. The plants were grown on in the climatic chamber for 9 days (cultivation at 24° C. during the day and 19° C. at night; 13 hours of light; 50-60% humidity). A visual assessment of the herbicidal effect was made at 9 days after application. The following scale was used for assessment: 0, 1, 2, 3, 4 and 5 (where 0 is no damage to plant and 5 is total damage to plant).

Structure (SMILES) | AGSTE herbicidal effect (visual assessment, scale 0-5) | AMARE herbicidal effect (visual assessment, scale 0-5) | DIGSA herbicidal effect (visual assessment, scale 0-5) | POATR herbicidal effect (visual assessment, scale 0-5) | SETIT herbicidal effect (visual assessment, scale 0-5)
CCS(=O)(=O)c1c(C[S+]([O-])c2ncc(Cl)s2)c(C(F)(F)F)nn1C (racemic) [1.080] | 5 | 4 | 5 | 5 | 5
Cn1cc(C[S+]([O-])c2ncc(Cl)s2)c(C(F)(F)F)n1 (racemic) [Compound 1.106] | 0 | 2 | 4 | 5 | 4
CC(Oc1c(CS(=O)(=O)c2ncc(Cl)s2)c(C(F)(F)F)nn1C)C(F)(F)F (racemic) [Compound 1.130] | 5 | 5 | 5 | 5 | 5
Cn1nc(C(F)(F)F)c(CSc2ncc(Cl)s2)c1OCCCF [Compound No. 1.102] | 5 | 2 | 4 | 0 | 2
Cn1nc(C(F)(F)F)c(CS(=O)(=O)c2ncc(Cl)s2)c1OCC(F)(F)C(F)F [Compound 1.120] | 5 | 5 | 5 | 5 | 5
CSc1c(C[S+]([O-])c2ncc(Cl)s2)c(C(F)(F)F)nn1C (racemic) [Compound No. 1.089] | 5 | 5 | 5 | 5 | 5
Cn1nc(C(F)(F)F)c(C[S+]([O-])c2ncc(C(F)F)s2)c1OCC(F)(F)F (racemic) [Compound 1.086] | 5 | 5 | 5 | 5 | 4
Cn1nc(C(F)(F)F)c(C[S+]([O-])c2ncc(Cl)s2)c1OC(CF)CF (racemic) [Compound 1.113] | 5 | 5 | 5 | 4 | 5
C=C(F)COc1c(CS(=O)(=O)c2ncc(Cl)s2)c(C(F)(F)F)nn1C [Compound 1.125] | 5 | 5 | 5 | 5 | 5
CC(CF)Oc1c(CS(=O)(=O)c2ncc(Cl)s2)c(C(F)(F)F)nn1C (racemic) [Compound 1.133] | 5 | 5 | 5 | 5 | 5
CC(Oc1c(CSc2ncc(Cl)s2)c(C(F)(F)F)nn1C)C(F)(F)F (racemic) [Compound No. 1.126] | 4 | 4 | 5 | 1 | 4
Cn1nc(C(F)(F)F)c(C[S+]([O-])c2ncc(Cl)s2)c1S(C)(=O)=O (racemic) [Compound No. 1.092] | 5 | 3 | 5 | 3 | 4
Cn1nc(C(F)(F)F)c(CS(=O)(=O)c2ncc(Cl)s2)c1OC(CF)CF [Compound 1.114] | 5 | 5 | 5 | 5 | 5
Cn1nc(C(F)(F)F)c(C[S+]([O-])c2ncc(Cl)s2)c1OCC(F)F (racemic) [Compound 1.116] | 5 | 5 | 5 | 5 | 5
Cn1nc(C(F)(F)F)c(C[S+]([O-])c2ncc(Cl)s2)c1OCCCF (racemic) [Compound 1.103] | 5 | 4 | 5 | 5 | 4
CCSc1c(CS(=O)(=O)c2ncc(Cl)s2)c(C(F)(F)F)nn1C [Compound No. 1.077, 5-chloro-2-(5-ethylsulfanyl-1-methyl-3-trifluoromethyl-1H-pyrazole-4-ylmethanesulfonyl)-thiazole] | 5 | 3 | 5 | 5 | 4
Cn1cc(CS(=O)(=O)c2ncc(Cl)s2)c(C(F)(F)F)n1 [Compound 1.107] | 0 | 3 | 5 | 0 | 3
Cn1nc(C(F)(F)F)c(CSc2ncc(Cl)s2)c1OCC(F)F [Compound No. 1.115] | 5 | 3 | 5 | 0 | 3
Cn1nc(C(F)(F)F)c(C[S+]([O-])c2ncc(Cl)s2)c1[S+](C)[O-] (single isomer, unassigned) [Compound No. 1.090] | 5 | 3 | 5 | 4 | 5
Cn1nc(C(F)(F)F)c(CS(=O)(=O)c2ncc(Cl)s2)c1OCCCF [Compound 1.104] | 5 | 5 | 5 | 5 | 5
